For 19 molecules, IC50, MIC and ED50 results are on record in patent US11572337B2, “Antibacterial agents: arylalkylcarboxamido phloroglucinols” (Rutgers, The State University of New Jersey, priority 2018, dated 2023).

Each structure is given as a SMILES string. In brackets after ≈: the same amount, converted by molar mass. A value given as a limit tells only on which side of the number the result lay.

The target in assay [1] is S. aureus RNA polymerase core enzyme + S. aureus σA (Staphylococcus aureus (strain NCTC 8325 / PS 47), UniProt P47768+Q2G0N5). Put plainly: Fluorescence-detected assay of inhibition of Staphylococcus aureus RNA polymerase. Type of assay: biochemical. As to conditions: T4 N25 promoter DNA, RiboGreen fluorescence, read-out: RNAP-inhibitory activity S. aureus RNAP IC50. As to the method:
(§1) Fluorescence-detected RNA polymerase assays with E. coli RNA polymerase were performed by a modification of the procedure of Kuhlman et al., 2004 [Kuhlman, P., Duff, H. & Galant, A. (2004) A fluorescence-based assay for multisubunit DNA-dependent RNA polymerases. Anal. Biochem. 324, 183-190]. Reaction mixtures contained […]: […] test salt, 75 nM E. coli RNA polymerase σ^70 holoenzyme, 20 nM 384 bp DNA fragment containing the bacteriophage T4 N25 promoter, 100 μM ATP, 100 μM GTP, 100 μM UTP, 100 μM CTP, 50 mM Tris-HCl, pH 8.0, 100 mM KCl, 10 mM MgCl2, 1 mM DTT, 10 μg/ml bovine serum albumin, and 5.5% glycerol. Reaction components other than DNA and NTPs were pre-incubated for 10 min at 37° C. Reactions were carried out by addition of DNA and incubation for 5 min at 37° C., followed by addition of NTPs and incubation for 60 min at 37° C. DNA was removed by addition of 1 μl 5 mM CaCl2 and 2 U DNaseI (Ambion, Inc.), followed by incubation for 90 min at 37° C. RNA was quantified by addition of 100 μI RiboGreen RNA Quantitation Reagent (Invitrogen, Inc.; 1:500 dilution in Tris-HCl, pH 8.0, 1 mM EDTA), followed by incubation for 10 min at 25° C., followed by measurement of fluorescence intensity [excitation wavelength=485 nm and emission wavelength=535 nm; QuantaMaster QM1 spectrofluorometer (PTI, Inc.)]. IC50 is defined as the concentration of inhibitor resulting in 50% inhibition of RNA polymerase activity.
Fluorescence-detected RNA polymerase assays with S. aureus RNA polymerase were performed as in Example 2.1, using reaction mixtures containing (20 μl): 0-100 nM test salt, 75 nM S. aureus RNA polymerase core enzyme, 300 nM S. aureus σ^A, 20 nM 384 bp DNA fragment containing the bacteriophage T4 N25 promoter, 100 μM ATP, 100 μM GTP, 100 μM UTP, 100 μM CTP, 40 mM Tris-HCl, pH 8.0, 80 mM NaCl, 5 mM MgCl2, 2.5 mM DTT, and 12.7% glycerol. IC50 is defined as the concentration of inhibitor resulting in 50% inhibition of RNA polymerase activity.

Assay [2] has as its system Staphylococcus aureus ATCC 12600. Description: Inhibition of growth of Staphylococcus aureus (spiral gradient endpoint MIC assay). As to conditions: ATCC12600, Mueller-Hinton II cation-adjusted agar, 16 h at 37° C., read-out: in vitro antibacterial activity S. aureus ATCC12600 MIC. Type of assay: cell-based. The text has this: Minimum inhibitory concentrations (MICs for Staphylococcus aureus ATCC 12600 were quantified using spiral gradient endpoint assays, essentially as described [Wallace, A. and Corkill, J. (1989) Application of the spiral plating method to study antimicrobial action. J. Microbiol. Meths. 10, 303-310; Paton, J., Holt, A., and Bywater, M. (1990) Measurement of MICs of antibacterial agents by spiral gradient endpoint compared with conventional dilution methods. Int. I Exp. Clin. Chemother. 3, 31-38; Schalkowsky S. (1994) Measures of susceptibility from a spiral gradient of drug concentrations. Adv. Exp. Med. Biol. 349, 107-120]. Assays employed exponential-gradient plates containing 150 mm×4 mm Mueller-Hinton II cation-adjusted agar and 0.4-100 μg/ml of test salt. Plates were prepared using an Autoplate 4000 spiral plater (Spiral Biotech, Inc.). Saturated overnight cultures were swabbed radially onto plates, and plates were incubated for 16 h at 37° C. For each culture, the streak length was measured using a clear plastic template (Spiral Biotech, Inc.), the test-salt concentration at the streak endpoint was calculated using the program SGE (Spiral Biotech, Inc.), and the MIC was defined as the calculated test-salt concentration at the streak endpoint.

In assay [3] the test system is methicillin-resistant Staphylococcus aureus (MRSA) strain BAA-1707 (USA-400, MW2). Put plainly: Antibacterial efficacy in mouse model of Staphylococcus aureus systemic infection (peritonitis model). To be noted: female Swiss Webster mice, intravenous injection 0 h post-infection, dose resulting in 50% survival at 72 h (probit), read-out: in vivo antibacterial activity mouse MRSA peritonitis ED50. As to the method:
Female Swiss Webster mice ([…]) were experimentally infected by intraperitoneal administration of 1×10^7 colony forming units of methicillin-resistant Staphylococcus aureus (MRSA) strain BAA-1707 (USA-400, MW2) in 5% hog gastric mucin. Test compounds in vehicle (5% dimethylacetamide and 4% cremophor EL in 10 mM sodium phosphate, pH 8), positive control (linezolid in vehicle), and negative control (vehicle only), were administered by intravenous injection into a tail vein (200 μl) 0 h post-infection. Identities of test compounds and controls were blinded from personnel performing injections and monitoring survival. The protective dose 50 (PD50) was defined as the test-compound dose resulting in 50% survival at 72 h (calculated using the probit method).

Assay [4] has as its target E. coli RNA polymerase σ70 holoenzyme (Escherichia coli (strain K12), UniProt P0A8T7+P0A8V2). Description: Fluorescence-detected assay of inhibition of Escherichia coli RNA polymerase. The assay is classed as biochemical. To be noted: T4 N25 promoter DNA, RiboGreen fluorescence, read-out: RNAP-inhibitory activity E. coli RNAP IC50. As to the method:
as §1

On to `O=C(NCCc1ccc(Oc2ccccc2)cc1)c1c(O)cc(O)cc1O` [Compound 0MTK148, 2,4,6-trihydroxy-N-(4-phenoxyphenethyl)benzamide], for which the IC50 amounted to 3.9 µM in assay [1] and 0.8 µM in assay [4]. For the same molecule, the MIC in assay [2] was 19 µg/mL (≈ 52 µM). Further, the ED50 in assay [3] came out at 2.5 mg/kg.

As for `O=C(NCCc1ccc(Oc2ccc(Cl)cc2)cc1)c1c(O)cc(O)cc1O` [Compound 0MTK183, N-(4-(4-chlorophenoxy)phenethyl)-2,4,6-trihydroxybenzamide], the IC50 is 14 µM in assay [1] and 1.7 µM in assay [4]. Besides, the MIC in assay [2] was found to be 6.1 µg/mL (≈ 15.3 µM).

Consider `O=C(NCCCc1ccc(Cl)cc1)c1c(O)cc(O)cc1O` [Compound 0MTK204, N-(3-(4-chlorophenyl)propyl)-2,4,6-trihydroxybenzamide], for which the IC50 was found to be 8 µM in assay [1] and 7 µM in assay [4]. In addition, the MIC in assay [2] was 27 µg/mL (≈ 83.9 µM).

With `O=C(NCCc1ccc(C(F)(F)F)cc1)c1c(O)cc(O)cc1O` [Compound 0MTK207, 2,4,6-trihydroxy-N-(4-(trifluoromethyl)phenethyl)benzamide], the results for the IC50 in assay [1] and in assay [4] were 13 µM and 7.4 µM, respectively. Moreover, the minimum inhibitory concentration (MIC) in assay [2] came to 19 µg/mL (≈ 55.7 µM).

Consider `O=C(NCCc1ccc(C(F)(F)F)cc1C(F)(F)F)c1c(O)cc(O)cc1O` [Compound 0MTK208, N-(2,4-bis(trifluoromethyl)phenethyl)-2,4,6-trihydroxybenzamide], for which the IC50 in assay [1] worked out at 5 µM; in assay [4], 7.2 µM. In addition, the MIC in assay [2] was determined as 11 µg/mL (≈ 26.9 µM).

For `O=C(NCCc1ccc(Cl)cc1)c1c(O)c(Cl)c(O)c(Cl)c1O` [Compound 0MTK221, 3,5-dichloro-N-(4-chlorophenethyl)-2,4,6-trihydroxybenzamide], the IC50 in assay [1] was determined as 98 µM; in assay [4] it was 14 µM. Besides, in assay [2], the MIC was greater than 40 µg/mL.

On to `O=C(NCCc1ccc(Cl)cc1)c1c(O)cc(O)c(Cl)c1O` [Compound 0MTK222, 3-chloro-N-(4-chlorophenethyl)-2,4,6-trihydroxybenzamide], for which the IC50 in assay [1] was 9 µM; in assay [4], 6.8 µM. In addition, in assay [2], the MIC is greater than 40 µg/mL.

Take `O=C(NCCc1ccc(C(F)(F)F)cc1)c1c(O)cc(O)c(Cl)c1O` [Compound 0MTK223, 3-chloro-2,4,6-trihydroxy-N-(4-(trifluoromethyl)phenethyl)benzamide]: the IC50 in assay [1] is 10 µM; in assay [4] it was 6.6 µM. The MIC in assay [2] was greater than 40 µg/mL.

With `O=C(NCCc1ccc(C(F)(F)F)cc1)c1c(O)c(Cl)c(O)c(Cl)c1O` [Compound 0MTK224, 3,5-dichloro-2,4,6-trihydroxy-N-(4-(trifluoromethyl)phenethyl)benzamide], the IC50 in assay [1] was greater than 100 µM; in assay [4], 25 µM. Besides, the MIC in assay [2] is greater than 40 µg/mL.

In the case of `O=C(NCCc1ccc(Oc2ccccc2)cc1)c1c(O)c(Cl)c(O)c(Cl)c1O` [Compound 0MTK230, 3,5-dichloro-2,4,6-trihydroxy-N-(4-phenoxyphenethyl)benzamide], the IC50 is 35 µM in assay [1] and 7.7 µM in assay [4]. Moreover, the minimal inhibitory concentration (MIC) in assay [2] is greater than 40 µg/mL.

Regarding `O=C(NCCc1ccc(Oc2ccc(F)cc2)cc1)c1c(O)c(Cl)c(O)c(Cl)c1O` [Compound 0MTK231, 3,5-dichloro-N-(4-(4-fluorophenoxy)phenethyl)-2,4,6-trihydroxybenzamide], the IC50 stood at 31 µM in assay [1] and 8.4 µM in assay [4]. For the same molecule, the MIC in assay [2] amounted to 33 µg/mL (≈ 73 µM).

`O=C(NCCc1ccc(Oc2ccc(Cl)cc2)cc1)c1c(O)cc(O)c(Cl)c1O` [Compound 0MTK232, 3-chloro-N-(4-(4-chlorophenoxy)phenethyl)-2,4,6-trihydroxybenzamide]: the IC50 in assay [1] came to 8 µM; in assay [4] it was 0.72 µM. Besides, in assay [2], the MIC turned out to be 20 µg/mL (≈ 46.1 µM).

With `O=C(NCCc1ccc(Oc2ccc(Cl)cc2)cc1)c1c(O)c(Cl)c(O)c(Cl)c1O` [Compound 0MTK233, 3,5-dichloro-N-(4-(4-chlorophenoxy)phenethyl)-2,4,6-trihydroxybenzamide], the IC50 in assay [1] is 23 µM; in assay [4], 4.5 µM. For the same molecule, in assay [2], the MIC was found to be 6.8 µg/mL (≈ 14.5 µM).

As for `O=C(NCCc1ccc(Oc2cc(Cl)cc(Cl)c2)cc1)c1c(O)cc(O)c(Cl)c1O` [Compound 0MTK237, 3-chloro-N-(4-(3,5-dichlorophenoxy)phenethyl)-2,4,6-trihydroxybenzamide], the IC50 in assay [1] amounted to 3 µM; in assay [4], 0.31 µM. Also, in assay [2], the MIC was determined as 15 µg/mL (≈ 32 µM).

As for `O=C(NCCc1ccc(Oc2cc(Cl)cc(Cl)c2)cc1)c1c(O)c(Cl)c(O)c(Cl)c1O` [Compound 0MTK238, 3,5-dichloro-N-(4-(3,5-dichlorophenoxy)phenethyl)-2,4,6-trihydroxybenzamide], the IC50 in assay [1] turned out to be 3 µM; in assay [4], 0.77 µM. Moreover, in assay [2], the MIC is 3.2 µg/mL (≈ 6.36 µM).

As to `O=C(NCCc1ccc(Oc2ccc(F)cc2)cc1)c1c(O)cc(O)c(Cl)c1O` [Compound 0MTK240, 3-chloro-N-(4-(4-fluorophenoxy)phenethyl)-2,4,6-trihydroxybenzamide], the figures for the IC50 in assay [1] and in assay [4] were 15 µM and 2.1 µM, respectively. Besides, the MIC in assay [2] was greater than 40 µg/mL.

In the case of `O=C(NCCc1ccc(Oc2cccc(Cl)c2)cc1)c1c(O)cc(O)cc1O` [Compound 0MTK256, N-(4-(3-chlorophenoxy)phenethyl)-2,4,6-trihydroxybenzamide], the IC50 in assay [1] amounted to 10 µM; in assay [4], 0.65 µM. In addition, the MIC in assay [2] came to 9.1 µg/mL (≈ 22.8 µM).

As for `Cc1ccc(Oc2ccc(CCNC(=O)c3c(O)cc(O)cc3O)cc2)cc1` [Compound 0MTK257, 2,4,6-trihydroxy-N-(4-(p-tolyloxy)phenethyl)benzamide], the IC50 in assay [1] was 11 µM; in assay [4], 0.8 µM. The MIC in assay [2] was 20 µg/mL (≈ 52.7 µM).

As to `CCC1=C(O)C(CC)(CC)C(=O)C(C(=O)NCCc2ccc(Oc3ccc(F)cc3)cc2)=C1O` [Compound 3RKHTK161, 3,5,5-triethyl-N-(4-(4-fluorophenoxy)phenethyl)-2,4-dihydroxy-6-oxocyclohexa-1,3-dienecarboxamide], the IC50 in assay [1] worked out at 13 µM; in assay [4], 3.3 µM. Further, the MIC in assay [2] stood at 2.8 µg/mL (≈ 5.99 µM).
